Source: patent US20240284792A1, “ORGANIC COMPOUND, LIGHT-EMITTING DEVICE, DISPLAY APPARATUS, AND ELECTRONIC DEVICE” (SEMICONDUCTOR ENERGY LABORATORY CO., LTD., priority 2023, published 2024)
Values after ≈ are worked out from the molar mass of the structure shown.

Experiment: Solubility test (water solubility) by LC-MS analysis
Format: physicochemical
Experimental: In the LC-MS analysis, liquid chromatography (LC) separation was carried out with ACQUITY UPLC manufactured by Waters Corporation, and MS analysis (mass spectrometry) was carried out with Xevo G2 Tof MS manufactured by Waters Corporation. Acquity UPLC BEH C8 (2.1×100 mm, 1.7 μm) was used as a column for the LC separation. Acetonitrile was used for Mobile Phase A and a 0.1% aqueous solution of formic acid was used for Mobile Phase B. The injection amount of the sample was 5.0 μL. Note that in the analysis, the wavelength of a photodiode array detector was set to 330 nm±1 nm.
In a 5-mL sample bottle, 1 mg of SFPy-hpp was put and 2 mL of N,N-dimethylformamide was added thereto. This mixture was irradiated with ultrasonic waves for five minutes. After it was confirmed that the solid was completely dissolved, this solution was diluted by 2.5 times with acetonitrile, whereby the concentration of the solution was adjusted to 200 mg/L. This solution was diluted with acetonitrile, whereby a solution with a concentration of 4 mg/L, a solution with a concentration of 2 mg/L, and a solution with a concentration of 0.2 mg/L were prepared. The prepared solutions were subjected to LC-MS analysis, and the peak area values derived from SFPy-hpp, which were obtained at the respective solution concentrations, were used to form calibration curves.
Next, the water solubility of SFPy-hpp was measured.
In a 5-mL sample bottle, 1 mg of SFPy-hpp was put and 1 mL of water was added thereto. This mixture was irradiated with ultrasonic waves for five minutes. This mixture was filtered through a membrane filter to remove the solid. The obtained solution was subjected to LC-MS analysis.

solubility in 1 mL of water (1 mg compound in 1 mL water, ultrasonic waves five minutes, membrane filtered, LC-MS with calibration curve): 0.00029 mg
solubility at 5 min (thermodynamic from solid, water, from calibration curve and LC-MS signal intensity, read-out: weight fraction of the water solubility): 0.29 µg/mL (≈ 0.546 µM)
water solubility (in words) (water, conclusion from LC-MS solubility test): extremely low water solubility
SMILES: c1cc(-c2ccc3c(c2)C2(c4ccccc4-c4ccccc42)c2ccccc2-3)nc(N2CCCN3CCCN=C32)c1 [SFPy-hpp, 1-[6-(9,9′-spirobi[9H-fluoren]-2-yl)pyridin-2-yl]-1,3,4,6,7,8-hexahydro-2H-pyrimido[1,2-a]pyrimidine]
